# Results reported in US8680320B2, “Heavy metal binding compounds and their method of use” (Life Technologies Corporation, priority 2006, dated 2014).
# “Also recorded” adds a separate entry of the source.
# Assays:
# [1] = Fluorescence titration of cadmium ions in cuvettes; assay type: binding; conditions: 50 mM MOPS pH 7, metal titrated up to 100 μM
# Experimental: A dye stock (709 μM) solution of Compound 10 was prepared in DMSO. Lead, cadmium and mercury solutions from 0-100 μM were prepared in disposable cuvettes by diluting a 100 μM metal stock solutions to a final volume of 2 mL with 50 mM MOPS (pH7). The 100 μM metal stocks were also in 50 mM MOPS (pH7). For the cadmium titration, dye stock was added to give a final concentration of 0.35 μM. For the lead and mercury titrations, dye stock was added to give a final concentration of 1.42 μM. Samples were excited at 492 nm and fluorescence was recorded at 517 nm. […] See, FIG. 2.
# The experiment was performed as described above except that the exact dye concentrations were unknown. Sample was dissolved in DMSO and diluted 2× in nano-pure H2O before running. Ex./Em. 549/577 nm. […] See, FIG. 1.
# The experiment was performed as described above for cadmium ion detection except that the exact dye concentrations were unknown. Ex./Em. 348/397/481 nm (ratiometric).
# [2] = tested on: intracellular Pb or Cd ions in 3T3 cells; assay: Compound 12 on 3T3 cells with PbCl2 or CdCl2, then TPEN chelation; assay type: cell-based; conditions: 400 nM Compound 12, 1 μM ionomycin
# Experimental: 500 nM, 250 nM and 125 nM of PbCl2 and at concentration range 100 uM, 50 μM and 25 μM of CdCl2.
# After fluorescence acquisition, TPEN, a cell-permeant heavy metal chelator, was added to the samples.
Structure (SMILES),Kd [1] [nM],Change of Compound 12 fluorescence after addition of the chelator [2]
O=C(O)COc1ccccc1OCCOc1cc(-c2cc3ccc(C(=O)O)cc3[nH]2)ccc1N(CC(=O)O)CC(=O)O [Compound 18],1200,–
"c1ccc(CN(CCN(Cc2ccccn2)Cc2ccccn2)Cc2ccccn2)nc1 [TPEN, tetrakis-(2-pyridylmethyl)ethylenediamine]",–,drop of fluorescence after TPEN addition; also recorded: drop in fluorescence from the viable cells
